Results on 78 molecules are retold here after patent US20200077648A1, “PHENOXYPHENYLAMIDINES AND THE USE THEREOF AS FUNGICIDES” (priority 2016, published 2020).

The nature of one data set: Log P measurement by HPLC on reversed phase columns (EEC directive 79/831 Annex V.A8; methods [a], [b], [c]). The format is physicochemical. Particulars: method [a]: LC-UV, acidic range, 0.1% formic acid in water and acetonitrile as eluent. Here is the method:
If more than one Log P value is available within the same method, all the values are given and separated by “+”. […] Lambda-max-values were determined using UV-spectra from 200 nm to 400 nm and the peak values of the chromatographic signals.
Regarding `CCN(C)C=Nc1cc(C)c(Oc2cccc(Cl)c2)cc1C` [Example 1], the LogP is 1.86^[a].
In the case of `CCN(C)C=Nc1cc(C)c(Oc2cccc(Cl)c2F)cc1Cl` [Example 3], the LogP is 1.88^[a].
As for `Cc1cc(Oc2ccc(F)cc2)c(C)cc1N=CN(C)C(C)C` [Example 4], the LogP was 1.66^[a];.
For `CCN(C)C=Nc1cc(C)c(Oc2ccccc2C)cc1C(F)F` [Example 6], the LogP is 1.72^[a].
The same measure, in the same setting: the result for `CCc1ccccc1Oc1cc(C)c(N=CN(C)CC)cc1C` [Example 10] reads 2.06^[a].
Turning to `CCN(C)C=Nc1cc(C)c(Oc2ccccc2C2CC2)cc1C` [Example 11], the LogP was 2.09^[a].
The same measure, in the same setting: the result for `CCN(C)C=Nc1cc(C)c(Oc2ccccc2)cc1C#N` [Example 13] reads 1.58^[a];; that for `CCN(C)C=Nc1cc(C)c(Oc2ccccc2F)cc1OC` [Example 14], 1.46^[a];; that for `CCN(C)C=Nc1cc(C)c(Oc2ccccc2C)cc1OC` [Example 15], 1.60^[a];.
With `CCN(C)C=Nc1cc(C)c(Oc2ccccc2C#N)cc1Cl` [Example 17], the LogP was 1.21^[a].
For `CCN(C)C=Nc1cc(Cl)c(Oc2ccccc2C#N)cc1C` [Example 18], the LogP was 1.21^[a].
On to `CCN(C)C=Nc1cc(C)c(Oc2ccccc2)cc1C(F)(F)F` [Example 22], for which the LogP was 1.89^[a].
On to `CCN(C)C=Nc1cc(C)c(Oc2ccccc2Cl)cc1C(F)(F)F` [Example 23], for which the LogP is 2.08^[a].
Turning to `CCN(C)C=Nc1cc(C)c(Oc2ccccc2F)cc1C(F)(F)F` [Example 24], the LogP is 1.89^[a].
Still for that read-out and setting: the result for `CCN(C)C=Nc1cc(C)c(Oc2ccccc2Br)cc1C(F)(F)F` [Example 25] reads 2.17^[a]; that for `CCN(C)C=Nc1cc(C)c(Oc2ccccc2I)cc1C(F)(F)F` [Example 26], 2.28^[a].
Turning to `CCN(C)C=Nc1cc(C)c(Oc2ccccc2C#N)cc1C(F)(F)F` [Example 27], the LogP is 1.63^[a].
On the same count and under the same terms, the result for `CCN(C)C=Nc1cc(C)c(Oc2ccccc2C)cc1C(F)(F)F` [Example 28] reads 1.96^[a]; that for `CCN(C)C=Nc1cc(C)c(Oc2ccccc2Br)cc1Cl` [Example 29], 1.80^[a];.
Still for that read-out and setting: the result for `Cc1cc(Oc2ccccc2)c(I)cc1N=CN(C)C` [Example 32] reads 1.61^[a];.
Still for that read-out and setting: the result for `CCN(C)C=Nc1cc(C(F)(F)F)c(Oc2ccccc2C)cc1C` [Example 33] reads 1.96^[a]; that for `CCc1cc(Oc2ccccc2)c(Br)cc1N=CN(C)C` [Example 35], 1.37^[a];.
Turning to `Cc1cc(N=CN(C)C)c(Cl)cc1Oc1ccccc1Br` [Example 37], the LogP is 1.55^[a];.
With `CCN(C)C=Nc1cc(C)c(Oc2ccccc2C#N)cc1C(F)F` [Example 38], the LogP is 1.55^[a].
The same measure, in the same setting: under `CCN(C)C=Nc1cc(C)c(Oc2ccccc2Cl)cc1C(F)F` [Example 39] stands 1.88^[a]; under `CCN(C)C=Nc1cc(C)c(Oc2ccccc2Br)cc1C(F)F` [Example 40], 1.94^[a]; under `CCN(C)C=Nc1cc(C)c(Oc2ccccc2I)cc1C(F)F` [Example 41], 1.90^[a].
As for `CCN(C)C=Nc1cc(Br)c(Oc2ccccc2C)cc1C` [Example 43], the LogP was 1.72^[a].
On the same count and under the same terms, under `CCN(C)C=Nc1cc(Br)c(Oc2ccccc2Cl)cc1C` [Example 45] stands 1.79^[a]; under `CCN(C)C=Nc1cc(Br)c(Oc2ccccc2Br)cc1C` [Example 46], 1.84^[a].
The same measure, in the same setting: the result for `CCN(C)C=Nc1cc(Br)c(Oc2ccccc2I)cc1C` [Example 47] reads 1.92^[a]; that for `CCN(C)C=Nc1cc(C)c(Oc2cccc(Cl)c2)cc1Cl` [Example 49], 1.84^[a]; that for `CCN(C)C=Nc1cc(Cl)c(Oc2cccc(Cl)c2F)cc1C` [Example 50], 1.83^[a].
Still for that read-out and setting: the result for `CCN(C)C=Nc1cc(C)c(Oc2ccccc2)cc1C1CC1` [Example 51] reads 1.75^[a]; that for `CCN(C)C=Nc1cc(C2CC2)c(Oc2ccccc2F)cc1C` [Example 52], 1.75^[a].
As to `CCN(C)C=Nc1cc(C)c(Oc2cccc(Cl)c2F)cc1C` [Example 53], the LogP is 1.89^[a].
Same read-out and setting: under `CCN(C)C=Nc1cc(C(F)F)c(Oc2ccccc2F)cc1C` [Example 54] stands 1.49^[a]; under `CCN(C)C=Nc1cc(I)c(Oc2ccccc2Br)cc1C` [Example 57], 1.75^[a]; under `CCN(C)C=Nc1cc(I)c(Oc2ccccc2Cl)cc1C` [Example 58], 1.72^[a].
The same measure, in the same setting: under `CCN(C)C=Nc1cc(I)c(Oc2ccccc2C)cc1C` [Example 59] stands 1.78^[a]; under `Cc1cc(N=CN(C)C)c(Cl)cc1Oc1ccccc1F` [Example 60], 1.37^[a]; under `Cc1cc(N=CN(C)C)c(Br)cc1Oc1ccccc1F` [Example 61], 1.39^[a].
The same measure, in the same setting: under `Cc1cc(N=CN(C)C(C)C)c(Cl)cc1Oc1ccccc1F` [Example 62] stands 1.61^[a]; under `Cc1cc(N=CN(C)C(C)C)c(Br)cc1Oc1ccccc1F` [Example 63], 1.63^[a]; under `Cc1cc(Oc2ccccc2F)c(C)cc1N=CN(C)C` [Example 66], 1.43^[a].

Still in this data set, the particulars now being: method [a]: LC-UV, acidic range, 0.1% formic acid in water and acetonitrile as eluent (linear gradient 10% to 95% acetonitrile).
Turning to `Cc1cc(Oc2ccccc2Br)c(C)cc1N=CN(C)C` [Example 68], the LogP was 1.66^[a].
Still for that read-out and setting: under `Cc1cc(Oc2ccccc2Br)c(C)cc1N=CN(C)C(C)C` [Example 69] stands 1.97^[a]; under `Cc1cc(Oc2ccccc2C#N)c(C)cc1N=CN(C)C` [Example 70], 1.25^[a].
Same read-out and setting: under `CCN(C)C=Nc1cc(C)c(Oc2ccccc2)cc1C#N` [Example 72] stands 1.53^[a]; under `CCN(C)C=Nc1cc(C)c(Oc2ccccc2C2CC2)cc1Cl` [Example 74], 1.78^[a].
Still for that read-out and setting: the result for `CCN(C)C=Nc1cc(C)c(Oc2ccccc2S(C)(=O)=O)cc1Cl` [Example 75] reads 0.91^[a]; that for `CCN(C)C=Nc1cc(C)c(Oc2ccccc2N(C)C)cc1Cl` [Example 76], 0.78^[a]; that for `CCN(C)C=Nc1cc(C)c(Oc2ccccc2C(=O)OC)cc1Cl` [Example 77], 1.35^[a].
In the case of `CCN(C)C=Nc1cc(C)c(Oc2ccccc2C(F)F)cc1Cl` [Example 78], the LogP was 1.55^[a].
The same measure, in the same setting: under `CCN(C)C=Nc1cc(C)c(Oc2cccc(F)c2Br)cc1Cl` [Example 79] stands 1.66^[a].
With `CCN(C)C=Nc1cc(C)c(Oc2cccc(F)c2C#N)cc1C` [Example 80], the LogP was 1.32^[a].
Same read-out and setting: under `CCN(C)C=Nc1cc(C)c(Oc2ccccc2F)cc1N(C)C` [Example 81] stands 1.58^[a]; under `CCN(C)C=Nc1cc(C)c(Oc2ccccc2)cc1N(C)C` [Example 82], 1.58^[a]; under `CCN(C)C=Nc1cc(C)c(Oc2ccccc2Br)cc1C` [Example 83], 1.63^[a].
Consider `CCN(C)C=Nc1cc(C)c(Oc2cc(F)ccc2C#N)cc1C` [Example 84], for which the LogP was 1.29^[a].
Turning to `CCN(C)C=Nc1cc(C)c(Oc2ccccc2N(C)C)cc1C` [Example 85], the LogP is 0.55^[a].
For the molecule `CCN(C)C=Nc1cc(C)c(Oc2cccc(F)c2C)cc1C` [Example 86], the LogP is 1.72^[a].
In the case of `CCN(C)C=Nc1cc(C)c(Oc2ccccc2)cc1C(=O)N(C)C` [Example 87], the LogP is 1.21^[a].
For `C=Cc1ccccc1Oc1cc(Cl)c(N=CN(C)CC)cc1C` [Example 89], the LogP is 1.69^[a].
Still for that read-out and setting: the result for `CCN(C)C=Nc1cc(C)c(Oc2ccccc2C(F)(F)F)cc1Cl` [Example 90] reads 1.81^[a].
As to `CCN(C)C=Nc1cc(C)c(Oc2ccccc2C(=O)N(C)C)cc1Cl` [Example 91], the LogP is 0.97^[a].
As to `CCN(C)C=Nc1cc(C)c(Oc2ccccc2C#N)cc1Br` [Example 92], the LogP is 1.27^[a].
On the same count and under the same terms, under `CCN(C)C=Nc1cc(C)c(Oc2ccccc2C2CC2)cc1Br` [Example 94] stands 1.84^[a].
In the case of `CCN(C)C=Nc1cc(C)c(Oc2cccc(F)c2C)cc1Br` [Example 95], the LogP was 1.75^[a].
For `C=C(C)c1cc(Oc2ccccc2)c(C)cc1N=CN(C)CC` [Example 96], the LogP is 1.63^[a].
The same measure, in the same setting: under `C=C(C)c1cc(Oc2ccccc2F)c(C)cc1N=CN(C)CC` [Example 97] stands 1.66^[a]; under `CCN(C)C=Nc1cc(C)c(Oc2ccccc2C(C)C)cc1Br` [Example 98], 2.26^[a]; under `CCN(C)C=Nc1cc(C)c(Oc2ccccc2I)cc1Br` [Example 99], 2.03^[a].
Take `CCN(C)C=Nc1cc(C)c(Oc2ccccc2N(C)C)cc1Br` [Example 100]: the LogP was 1.07^[a].
Still for that read-out and setting: the result for `CCN(C)C=Nc1cc(C)c(Oc2ccccc2[S+](C)[O-])cc1Br` (centres unmarked) [Example 101] reads 1.02^[a]; that for `CCN(C)C=Nc1cc(C)c(Oc2ccccc2SC)cc1Br` [Example 103], 1.82^[a].
Same read-out and setting: the result for `CCN(C)C=Nc1cc(C)c(Oc2cccc(F)c2C#N)cc1Br` [Example 104] reads 1.58^[a].

The data set is the same for the next values; noted with them: method [b]: LC-UV, neutral range, 0.001 molar ammonium acetate solution in water and acetonitrile as eluent.
For the molecule `Cc1cc(Oc2ccc(F)cc2)c(C)cc1N=CN(C)C(C)C` [Example 4], the LogP is 5.63^[b].
Consider `CCN(C)C=Nc1cc(C)c(Oc2ccccc2)cc1C#N` [Example 13], for which the LogP was 3.78^[b].
For the molecule `CCN(C)C=Nc1cc(C)c(Oc2ccccc2F)cc1OC` [Example 14], the LogP is 4.33^[b].
On to `CCN(C)C=Nc1cc(C)c(Oc2ccccc2C)cc1OC` [Example 15], for which the LogP is 5.53^[b].
In the case of `CCN(C)C=Nc1cc(C)c(Oc2ccccc2Br)cc1Cl` [Example 29], the LogP is 4.93^[b].
On to `Cc1cc(Oc2ccccc2)c(I)cc1N=CN(C)C` [Example 32], for which the LogP is 4.51^[b].
The same measure, in the same setting: the result for `CCc1cc(Oc2ccccc2)c(Br)cc1N=CN(C)C` [Example 35] reads 4.29^[b]; that for `Cc1cc(N=CN(C)C)c(Cl)cc1Oc1ccccc1Br` [Example 37], 4.47^[b].

Still in this data set, the particulars now being: reversed phase HPLC column; method [a]: LC-UV, acidic range, 0.1% formic acid in water and acetonitrile as eluent.
The term chromatographic logP denotes a lipophilicity value derived from retention on a column. Low values mean lower lipophilicity, high ones higher lipophilicity. Molecule `CCN(C)C=Nc1cc(C)c(Oc2ccccc2F)cc1C1CC1` [Example 34, N′-[2-cyclopropyl-4-(2-fluorophenoxy)-5-methyl-phenyl]-N-ethyl-N-methyl-formamidine] yielded a chromatographic logP of 1.69.
